Literature values in PMC11913096, “MBX 2109, A Once-Weekly Parathyroid Hormone Replacement Therapy Prodrug: Phase 1, First-In-Human, Randomized Trial” (The Journal of Clinical Endocrinology and Metabolism, 2024).
Where no end group is shown, it is not given here.

What was measured:
[1] = test system: patients with hypoPT; details: once-daily, placebo 5%
Protocol: (§1) Because PTH deficiency is the etiology for chronic hypoPT, hormone replacement therapy with PTH would be the ideal treatment ([1], [2]). However, the short half-lives (t1/2) of unmodified PTH(1-34) and PTH(1-84) peptides necessitate frequent administration to normalize serum calcium levels ([2]). For example, twice-daily subcutaneous (SC) injection of teriparatide, a recombinant PTH(1-34) analogue with a short half-life (∼1 hour) ([2]), was more efficacious than once-daily administration in normalizing serum calcium and reducing hypercalciuria in patients with hypoPT ([9]). Continuous SC (pump ...

[2] = Protocol: as §1

Row | Substance | Patients achieving composite primary end point (normalizing serum calcium and eliminating active vitamin D and calcium supplements) [1] [%] | Half-life [2] [h]
1 | palopegteriparatide (SVSEIQLMHNLGKHLNSMERVEWLRKKLQDVHNF; also: methoxy-PEG carrier prodrug, attachment not given here; UniProt P01270 32-65, looked up, fragment) [prodrug of PTH(1-34) conjugated to a methoxypolyethylene glycol (PEG) carrier] | 79 | –
2 | teriparatide | – | ~1
